Paper PMC8537711, “Mechanistic Insights into Binding of Ligands with Thiazolidinedione Warhead to Human Histone Deacetylase 4” (Pharmaceuticals, 2021)

System: cdHDAC4 mutant variants
Test: Mutational study: Ki (Cheng-Prusoff from IC50) against cdHDAC4 mutant variants relative to wild type
Type: biochemical, human
Conditions: exchange of S758, D759, E764, T808, F812, F871 and L943
Experimental: To gain an thorough knowledge of the most involved amino acids necessary for molecular recognition of TZD ligands to cdHDAC4wt, a comprehensive mutational study was designed. Amino acids flanking the active site binding pocket in the closed (Figure 5A) and open (Figure 5B) conformation of the enzyme were systematically exchanged and IC50-values of a subset of 25 TZDs were determined against every mutant variant. Because IC50-values depends on the substrate concentration and the Km of the substrate, the Michaelis Menten parameters were determined first using substrate tert-butyl N-[(2S)-1-[(4-methyl-2-oxochromen-7-yl)amino]-1-oxo-6-[(2,2,2-trifluoroacetyl)amino]hexan-2-yl]carbamate (Boc-Lys{TFA}-AMC) in a semi continuous enzyme activity assay (Figure 5C and Figure S1). IC50-values were transformed into binding constant Ki using the Cheng-Prusoff equation to enable a fair comparison of ligand affinities to the respective HDAC4 variant:(1) IC50=(1+[S]/Km)×Ki
A serial dilution of TZD in assay buffer (25 mM TRIS-HCl, 75 mM KCl, 0.001% Pluronic F-127, pH 8.0) was incubated with 1 nM cdHDAC4wt in a black 96-well microtiter plate (Greiner). […] The release of fluorogenic substrate was followed in a microplate reader (PherStar Plus, BMG Labtech, Ortenberg, Germany) at 450 nm (λEx = 350 nm) and correlated to enzyme activity. […]

CC(/C=C/C(=O)NO)=C\[C@@H](C)C(=O)c1ccc(N(C)C)cc1 [TSA, Trichostatin A]
log10Ki ratio (Ki mutant / Ki wildtype): above 1
